Where a SMILES comes first, the peptide text is derived from it. Where no end group is shown, it is not given here. [ ]: non-standard residue; d: D form. pY = N[CH](Cc1ccc(OP(=O)(O)O)cc1)C(=O)O; pT = C[CH](OP(=O)(O)O)[CH](N)C(=O)O; pS = N[CH](COP(=O)(O)O)C(=O)O
T1: feline calcium-sensing receptor (CaSR) (feline (cat))
T1 chain: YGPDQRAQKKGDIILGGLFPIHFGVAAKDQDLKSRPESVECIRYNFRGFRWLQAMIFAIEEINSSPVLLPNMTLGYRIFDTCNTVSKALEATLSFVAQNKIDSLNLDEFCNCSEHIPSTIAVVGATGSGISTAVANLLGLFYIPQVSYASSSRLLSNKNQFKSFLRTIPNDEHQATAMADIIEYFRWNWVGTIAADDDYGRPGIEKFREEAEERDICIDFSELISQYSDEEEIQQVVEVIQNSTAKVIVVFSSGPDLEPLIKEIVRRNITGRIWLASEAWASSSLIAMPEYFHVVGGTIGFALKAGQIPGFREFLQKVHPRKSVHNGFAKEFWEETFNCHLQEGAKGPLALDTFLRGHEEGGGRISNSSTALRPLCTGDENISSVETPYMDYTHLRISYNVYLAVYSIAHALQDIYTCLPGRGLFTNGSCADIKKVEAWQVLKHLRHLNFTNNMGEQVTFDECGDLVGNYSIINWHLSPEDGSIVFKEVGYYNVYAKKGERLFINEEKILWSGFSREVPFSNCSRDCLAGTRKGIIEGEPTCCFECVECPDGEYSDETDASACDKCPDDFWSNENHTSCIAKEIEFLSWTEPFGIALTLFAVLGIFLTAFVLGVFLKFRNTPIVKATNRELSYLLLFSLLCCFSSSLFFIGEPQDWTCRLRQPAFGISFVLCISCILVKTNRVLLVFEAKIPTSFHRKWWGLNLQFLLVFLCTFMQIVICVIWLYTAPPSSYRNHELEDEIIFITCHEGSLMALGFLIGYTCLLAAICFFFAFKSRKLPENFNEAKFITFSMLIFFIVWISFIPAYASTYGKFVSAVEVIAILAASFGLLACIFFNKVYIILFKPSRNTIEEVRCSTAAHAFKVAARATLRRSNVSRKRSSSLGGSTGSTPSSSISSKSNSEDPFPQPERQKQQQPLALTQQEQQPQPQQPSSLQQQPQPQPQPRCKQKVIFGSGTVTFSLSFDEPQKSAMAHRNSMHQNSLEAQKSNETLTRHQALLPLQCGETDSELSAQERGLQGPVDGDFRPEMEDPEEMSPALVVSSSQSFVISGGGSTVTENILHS


Target: feline Kokumi taste receptor (f-CaSR)
Test: feline Kokumi taste receptor assay (f-CaSR), agonistic activity of isolated samples
Format: cell-based
Settings: isolated samples from hydrolysate T648
Method: Aliquots of the isolated samples were tested for their agonistic activity in feline Kokumi taste receptor assays (f-CaSR).

Row | Molecule | EC50 [mM] | f-CaSR activity (EC50)
1 | CC[C@H](C)[C@H](N)C(=O)NCC(=O)N[C@@H](COP(=O)(O)O)C(=O)N[C@@H](CCC(=O)O)C(=O)N[C@@H](COP(=O)(O)O)C(=O)N[C@H](C(=O)N[C@@H](CCC(=O)O)C(=O)N[C@@H](CC(=O)O)C(=O)N[C@@H](CCC(N)=O)C(=O)N[C@@H](C)C(=O)O)[C@@H](C)O [BC 08, Ile-Gly-pSer-Glu-pSer-Thr-Glu-Asp-Gln-Ala] (H-IG[pS]E[pS]TEDQA-OH; N-terminus and C-terminus assumed) | 2 | 
2 | 5-oxoproline-Lys-Glu-Pro [BC 02] |  | Not active
3 | CC[C@H](C)[C@H](NC(=O)[C@@H](N)CC(=O)O)C(=O)NCC(=O)N[C@@H](COP(=O)(O)O)C(=O)N[C@@H](CCC(=O)O)C(=O)N[C@@H](COP(=O)(O)O)C(=O)N[C@H](C(=O)N[C@@H](CCC(=O)O)C(=O)N[C@@H](CC(=O)O)C(=O)N[C@@H](CCC(N)=O)C(=O)N[C@@H](C)C(=O)O)[C@@H](C)O [BC 10, Asp-Ile-Gly-pSer-Glu-pSer-Thr-Glu-Asp-Gln-Ala] (H-DIG[pS]E[pS]TEDQA-OH; N-terminus and C-terminus assumed) | 2 | 
4 | CC[C@H](C)[C@H](NC(=O)[C@@H](N)CCC(=O)O)C(=O)N[C@H](C(=O)N1CCC[C@H]1C(=O)N[C@@H](CC(N)=O)C(=O)N[C@@H](COP(=O)(O)O)C(=O)N[C@@H](C)C(=O)N[C@@H](CCC(=O)O)C(=O)N[C@@H](CCC(=O)O)C(=O)O)C(C)C [BC 09, Glu-Ile-Val-Pro-Asn-pSer-Ala-Glu-Glu] (H-EIVPN[pS]AEE-OH; N-terminus and C-terminus assumed) | 3.16 | 
5 | CC(C)C(NC(=O)C(N)CC(=O)O)C(=O)NC(CCC(=O)O)C(=O)O (stereo not drawn) [BC 01, Asp-Val-Glu] (H-Asp-Val-Glu-OH; configuration not given here) | 6.32 | 
6 | CC[C@H](C)[C@H](N)C(=O)NCC(=O)N[C@@H](COP(=O)(O)O)C(=O)N[C@@H](CCC(=O)O)C(=O)N[C@@H](COP(=O)(O)O)C(=O)N[C@H](C(=O)N[C@@H](CCC(=O)O)C(=O)N[C@@H](CC(=O)O)C(=O)N[C@@H](CCC(N)=O)C(=O)O)[C@@H](C)O [BC 06, Ile-Gly-pSer-Glu-pSer-Thr-Glu-Asp-Gln] (H-IG[pS]E[pS]TEDQ-OH; N-terminus and C-terminus assumed) | 2 | 

Target: T1, feline calcium-sensing receptor (CaSR)
Test: cell-based or functional assay
Settings: not given

Row | Molecule | f-CaSR activity (EC50) [mM]
7 | DVE [Asp-Val-Glu] | 6.32

Target: feline calcium-sensing receptor (CaSR) (feline (cat))
Test: cell-based or functional assay
Settings: not given

Row | Molecule | f-CaSR activity (EC50) [mM]
8 | IG[pS]E[pS]TEDQA | 2
9 | EIVPN[pS]AEE | 3.16
10 | IG[pS]E[pS]TEDQ | 2
11 | DIG[pS]E[pS]TEDQA | 2

Target: feline CaSR (Felis catus, UniProt A0ABI7YY68)
Test: HEK T-Rex/natClytin-fCaSR luminescence assay, activation of feline CaSR
Format: cell-based
Settings: not given
Method: The cells used for the assays were HEK293 derived HEK T-Rex/natClytin-fCaSR cells. For the assays, the cells were plated on […] culture plates with a clear bottom for reading the luminescence in the wells. The setup of the assay for standard assays on the FlexStation was as follows. The wells containing the cells had 20 ul of calcium-free Tyrode's buffer at the beginning of the assay. 20 ul of each ligand at a specified concentration was injected on the cells and the response of the cells was measured for 90 sec at 1.94 sec intervals. The resulting curves were analyzed and reduced using the software provided by Molecular Devices, SoftMax Pro (version 5.4.1).
Each peptide was assayed on two separate occasions at least, with four repetitions of each concentration applied to the cells. In parallel, the same tests were run on a mock cell line with a mock vector, in order to confirm the specificity of any signals measured.
The data obtained from the FlexStation was used to trace dose-response curves for each ligand. These graphs were plotted using GraphPad Prism 7.03 software with the [Agonist] vs. response—Variable slope (four parameters) plot. The same formula was used to calculate the EC50 value with the associated Standard Error. Each plot contains the mean data points with an SEM calculated by the software for each data point.
One of the concerns during the planning of these assays was that it was possible that some of these peptides could bind the divalent calcium cation and cause a non-specific response from the receptor. In order to ensure that the interaction between the receptor and the peptides was measured and not with calcium, the peptides were synthesized in guaranteed calcium-free conditions. Similarly, all the assays were performed using calcium-free reagents.

Row | Molecule | EC50 [mM]
12 | CC(C)C(NC(=O)C(N)CS)C(=O)NC(CS)C(=O)O (stereo not drawn) [Cys-Val-Cys] (H-Cys-Val-Cys-OH; configuration not given here) | ~12.6
13 | CC(C)C(NC(=O)C(N)CCC(=O)O)C(=O)NC(CC(=O)O)C(=O)O (stereo not drawn) [Glu-Val-Asp] | 3.32 ± 0.77
14 | NC(Cc1ccc(OP(=O)(O)O)cc1)C(=O)NC(CCC(=O)O)C(=O)NC(Cc1ccc(OP(=O)(O)O)cc1)C(=O)O (stereo not drawn) [pTyr-Glu-pTyr] (H-[pY]-Glu-[pY]-OH; configuration not given here) | 2.22 ± 0.22
15 | CC(C)C(NC(=O)C(N)CC(=O)O)C(=O)NC(CC(=O)O)C(=O)O (stereo not drawn) [Asp-Val-Asp] (H-Asp-Val-Asp-OH; configuration not given here) | 3.41 ± 0.05
16 | CC(C)C(NC(=O)C(N)COP(=O)(O)O)C(=O)NC(CCC(=O)O)C(=O)O (stereo not drawn) [pSer-Val-Glu] (H-[pS]-Val-Glu-OH; configuration not given here) | 3.04 ± 0.03
17 | N[C@@H](CCC(=O)O)C(=O)O [Glu, glutamic acid, reference compound] | ~5.9
18 | NC(CO)C(=O)NC(CCC(=O)O)C(=O)NC(CO)C(=O)O (stereo not drawn) [Ser-Glu-Ser] (H-Ser-Glu-Ser-OH; configuration not given here) | 3.56 ± 0.11
19 | CC(C)C(NC(=O)C(N)CCC(=O)O)C(=O)NC(CCC(=O)O)C(=O)O (stereo not drawn) [Glu-Val-Glu] (H-Glu-Val-Glu-OH; configuration not given here) | 3.54 ± 0.05
20 | CC(C)[C@H](NC(=O)CC[C@H](N)C(=O)O)C(=O)NCC(=O)O [γ-Glu-Val-Gly, reference compound] | 5.78 ± 2.41
21 | NC(CC(=O)O)C(=O)NC(CCC(=O)O)C(=O)NC(CCC(=O)O)C(=O)O (stereo not drawn) [Asp-Glu-Glu] (H-Asp-Glu-Glu-OH; configuration not given here) | 2.59 ± 0.09
22 | CC(NC(=O)C(N)CC(=O)O)C(=O)NC(CCC(=O)O)C(=O)O (stereo not drawn) [Asp-Ala-Glu] (H-Asp-Ala-Glu-OH; configuration not given here) | 3.54 ± 0.05
23 | CC(C)C(NC(=O)C(N)CC(=O)O)C(=O)NC(CCC(=O)O)C(=O)O (stereo not drawn) [BC 01, Asp-Val-Glu] (H-Asp-Val-Glu-OH; configuration not given here) | 3.3 ± 0.15
24 | CC[C@H](C)[C@H](N)C(=O)NCC(=O)N[C@@H](COP(=O)(O)O)C(=O)N[C@@H](CCC(=O)O)C(=O)N[C@@H](COP(=O)(O)O)C(=O)N[C@H](C(=O)N[C@@H](CCC(=O)O)C(=O)N[C@@H](CC(=O)O)C(=O)N[C@@H](CCC(N)=O)C(=O)O)[C@@H](C)O [BC 06, Ile-Gly-pSer-Glu-pSer-Thr-Glu-Asp-Gln] (H-IG[pS]E[pS]TEDQ-OH; N-terminus and C-terminus assumed) | ~1.6

Same assay, conditions: HEK T-Rex/natClytin-fCaSR cells, calcium-free Tyrode's buffer; ≈ values are model estimates without standard error; read-out: EC50 ± Std Error

Row | Molecule | EC50 [mM]
25 | CC(C)C(NC(=O)C(N)COP(=O)(O)O)C(=O)NC(COP(=O)(O)O)C(=O)O (stereo not drawn) [pSer-Val-pSer] (H-[pS]-Val-[pS]-OH; configuration not given here) | 2.63 ± 0.04
26 | N[C@@H](CC(=O)O)C(=O)O [Asp, aspartic acid, reference compound] | ~6.1
27 | CSCC[C@H](NC(=O)CC[C@H](N)C(=O)O)C(=O)O [γ-Glu-Met, reference compound] | ~6.7
28 | [Cl-].[Cl-].[Mg+2] [MgC12, reference compound] | 6.72 ± 0.13
29 | CC(OP(=O)(O)O)C(N)C(=O)NC(CCC(=O)O)C(=O)NC(C(=O)O)C(C)OP(=O)(O)O (stereo not drawn) [pThr-Glu-pThr] (H-[pT]-Glu-[pT]-OH; configuration not given here) | 1.98 ± 0.07
30 | [Ca+2].[Cl-].[Cl-] [CaC12, CaCl2, reference compound] | 1.6 ± 0.06
31 | NC(COP(=O)(O)O)C(=O)NC(CCC(=O)O)C(=O)NC(COP(=O)(O)O)C(=O)O (stereo not drawn) [pSer-Glu-pSer] (H-[pS]-Glu-[pS]-OH; configuration not given here) | 3.04 ± 0.21
32 | N[C@@H](CCC(=O)N[C@@H](CS)C(=O)NCC(=O)O)C(=O)O [GSH, reference compound] | 6.71 ± 0.57
33 | N[C@@H](CCC(=O)N[C@@H](Cc1ccccc1)C(=O)O)C(=O)O [γ-Glu-Phe, reference compound] | ~7.8
34 | CC(C)[C@H](NC(=O)CC[C@H](N)C(=O)O)C(=O)O [γ-Glu-Val, reference compound] | ~3.9
35 | N[C@@H](CCC(=O)N[C@@H](Cc1ccc(O)cc1)C(=O)O)C(=O)O [γ-Glu-Tyr, reference compound] | ~6.9

Reference: patent US20220256889A1, “PEPTIDES THAT MODULATE CALCIUM-SENSING RECEPTOR ACTIVITY FOR MODULATING KOKUMI TASTE AND PET FOOD PRODUCTS CONTAINING THE SAME” (MARS, INCORPORATED, priority 2019, published 2022)
